Measured values taken from patent US12502371B2, “Drug for treating and preventing dementia” (Numan Labo LLC, priority 2019, dated 2025).

Test system: mice
Test: Y-maze test in mice given scopolamine
Format: in vivo, mouse
Settings: based on total motor activity and correct alternation rate, scopolamine-treated mice
Method: The Y-maze test was performed in mice divided into three types A, B, and C. The mice were placed in a Y-maze and allowed to move freely for 6 minutes. The sequence of entries into each arm and the total number of arm entries were measured since mice have the habit of always choosing a new arm of the maze. In order to evaluate the degree of memory impairment, the correct alternation rate was calculated based on the percentage of correct arm entries out of the total number of arm entries. Mice of types A, B, and C received drugs as shown below. […] The total number of entries and percentage of correct alternations were analyzed based on data obtained from the Y-maze test. Four mice from each type were examined. The following animals were used in the experiments. • Species: mouse • Strain: Crj:ICR • Sex: male • Age in weeks: 4

With `COc1ccccc1OCC(O)COC(N)=O` (stereo not shown) [Methocarbamol, methocarbamol] as the compound, how does the “Effect on cognitive function (in words)” value read?
Its value is “had the effect of improving cognitive function”.
